The results in this text go back to patent publication US10336682B1, “Hydroxytyrosol shikimic acid ester for treating cardiovascular deceases and a method of preparing the same” (SHAANXI UNIVERSITY OF SCIENCE AND TECHNOLOGY, priority 2019, dated 2019).

One test has as its system prostaglandin E2 (PGE2). Briefly: Measurement of PGE2 in rat plasma after intragastric administration. It counts as in vivo, SD rats. The note with it: for PGE2 level in rat plasma: after 20 days, male SD rats. From the text: (§1) Measurement of thromboxane B2 (TXB2), 6-keto prostaglandin F1a (6-Ke-PGF1a) and prostaglandin E2 (PGE2) in rat plasma by enzyme-linked immunosorbent assay
(§2) Experimental materials: clean grade SD rats, body weight 150-250 g, male; TXB2 radioimmunoassay kit, 6-Ke-PGF1a radioimmunoassay kit, PGE2 radioimmunoassay kit, Shanghai Bairui Biotechnology Co., Ltd.
(§3) Experimental methods: 32 rats were randomly divided into 4 groups, 8 rats in each group. After 2 days of normal feeding, blood was taken from the jugular vein of each rat, and the plasma was separated and frozen at −20° C. On the next day, rats in the experimental groups were intragastrically administered with low doses of hydroxytyrosol shikimic acid ester (experimental group 1), medium dose of hydroxytyrosol shikimic acid ester (experimental group 2) and high-dose hydroxytyrosol shikimic acid ester (experimental group 3) at a dose of 1 mL/100 g. Rats in the control group were intragastrically administered with the same amount of normal saline. After 20 days, blood was taken from the jugular vein of each rat, anticoagulated, and the plasma was separated and frozen at −20° C. The contents of plasma TXB2, 6-Ke-PGF1A and PGE2 in each group of rats were determined according to TXB2, 6-Ke-PGF1a and PGE2 kit methods.

In test [1] the test system is 6-keto prostaglandin F1a (6-Ke-PGF1a). Briefly: Measurement of 6-Ke-PGF1a in rat plasma after intragastric administration. The note with it: for 6-Ke-PGF1a level in rat plasma: after 20 days, male SD rats. The test is classed as in vivo, SD rats.
From the text: as §1, §2, §3

A further test concerns thromboxane B2 (TXB2). The test is described as follows: Measurement of TXB2 in rat plasma after intragastric administration. The note with it: for TXB2 level in rat plasma: after 20 days, male SD rats. The test is classed as in vivo, SD rats.
From the text: as §1, §2, §3

In a further test the test system is blood clot (thrombus). The test is described as follows: Measurement of thrombus resolution rate: mouse blood clots incubated with test solution. Further details: species or system Kunming mice. The settings on record: for Resolution/% (thrombus resolution rate): 2 mL solution on mouse blood clot, 6 hours at 37° C. The protocol: Measurement of Thrombus Resolution Rate in Mice
Experimental materials: Clean-grade Kunming mice, weighing 20-28 g each, half male and half female; urokinase (Shanghai Maclean Biotechnology Co., Ltd.)
Experimental methods: 40 healthy Kunming mice were randomly divided into 5 groups according to their body weight, 8 in each group, half male and half female. One group of mice was selected as blank control. 1 mL of blood was taken from each mouse of the blank control group. After the blood was solidified, the formed blood clot (thrombus) was rinse with physiological saline for 30 minutes, and dried and weighed. The average weight of blood clot was calculated as W. Other groups of mice were treated with the same method. The blood clots were rinsed, and placed in cryotubes. 2 mL solutions of urokinase (positive control group), a low dose of hydroxytyrosol shikimic acid ester (experiment group 1), a medium dose of hydroxytyrosol shikimic acid ester (experimental group 2), and a high dose of hydroxytyrosol shikimic acid ester (experimental group 3) were added to the blood clots. For the blank control group, an equal volume of physiological saline was added to the blood clot. After incubating for 6 hours in a 37° C. incubator, the clots were taken out and rinsed with physiological saline for 30 min. After drying and weighing, the average weight of the blood clot was recorded as G, and the resolution rate of the blood clot was calculated according to the following formula. Thrombus Resolution Rate (%)=[(W−G)/W]×100%

Setting [2] is: compared with the blank control group, 25-250 mg/Kg · d.

For `O=C(OCCc1ccc(O)c(O)c1)C1=C[C@@H](O)[C@@H](O)[C@H](O)C1` [hydroxytyrosol shikimic acid ester], the “PGE2 level in rat plasma” value is 26.18 ± 0.21 pg/mL with prostaglandin E2 (PGE2) (25 mg/Kg · d intragastric), 24.22 ± 0.14 pg/mL in the test on prostaglandin E2 (PGE2) (50 mg/Kg · d intragastric) and 20.87 ± 0.19 pg/mL in the test with prostaglandin E2 (PGE2) (250 mg/Kg · d intragastric). Further, the “content of PGE2 in rat plasma, in words” value in the test with prostaglandin E2 (PGE2) (setting [2]) is “reduced in a dose-dependent manner”. For the same compound, the “6-Ke-PGF1a level in rat plasma” value in test [1] (25 mg/Kg · d intragastric) was 76.46 ± 0.17 pg/mL; in test [1] (50 mg/Kg · d intragastric) it was 85.40 ± 0.32 pg/mL; in test [1] (250 mg/Kg · d intragastric) it was 81.36 ± 0.28 pg/mL. Moreover, the “content of 6-Ke-PGF1a in rat plasma, in words” value in test [1] (compared with the blank control group, 25-250 mg/Kg · d, no obvious dose-dependent relationship) was “increased”. The “TXB2 level in rat plasma” value stood at 4.93 ± 0.12 pg/mL in the test with thromboxane B2 (TXB2) (25 mg/Kg · d intragastric), 3.12 ± 0.14 pg/mL in the test with thromboxane B2 (TXB2) (250 mg/Kg · d intragastric) and 4.38 ± 0.22 pg/mL in the test on thromboxane B2 (TXB2) (intragastric). Besides, the “content of TXB2 in rat plasma, in words” value with thromboxane B2 (TXB2) (setting [2]) is “reduced in a dose-dependent manner”. The “Resolution/% (thrombus resolution rate)” value with blood clot (thrombus) (2.5 mg/mL (low dose, experimental group 1)) stood at 6.33 ± 0.19 %; with blood clot (thrombus) (5 mg/mL (medium dose, experimental group 2)), 7.04 ± 0.41 %; with blood clot (thrombus) (10 mg/mL (high dose, experimental group 3)), 8.93 ± 0.45 %. Further, the “blood clot resolution (thrombolytic) effect, in words” value in the test with blood clot (thrombus) (compared with the blank control group, 2.5-10 mg/mL) was “significant thrombolytic effect”.
In the case of urokinase [reference compound], in the test on blood clot (thrombus) (0.5 U/mL), the “Resolution/% (thrombus resolution rate)” value worked out at 12.38 ± 0.27 %.
